Test results as given in paper PMC12528448, “Resistance to CDK7 inhibitors directed by acquired mutation of a conserved residue in cancer cells” (The EMBO Journal, 2025).
Where “and” joins values, the source holds several entries; their conditions need not be identical. Equal entries are not always repeated.

Columns and labels:
Assay type in all cases: cell-based, human
MCF7 cells = experiment: Growth assay (SRB), MCF7; conditions: for % Growth: biological reps
Outline: (§1)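 For the SRB assay, cells were treated 2 days after seeding with increasing drug concentrations for 4 days, and IC50 came from non-linear regression. For the IncuCyte runs, drugs were added 2 days post-seeding, confluency was imaged every 6 h, and doubling times were fitted to an exponential growth equation.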

[1] = tested on: 22Rv1 homozygous CDK7-D97N CL3 cells; experiment: IncuCyte confluency growth, 22Rv1 homozygous CDK7-D97N CL3
Description: (§2) To determine the IC50 of drug treatments on growth, cells were seeded in 96-well culture plates. Two days after seeding, the cells were treated with increasing concentrations of drugs and incubated for 4 days. Cell number was determined using the SRB assay (Skehan et al, [1990]), and IC50 values were calculated using non-linear regression curve fitting in GraphPad Prism v10. For all other growth experiments, cells were seeded into 96-well plates, and appropriate drugs were added 2 days after seeding. Cells were then incubated in an IncuCyte Zoom live-cell imager, with cell confluency measured every 6 h. Cell doubling times were determined by non-linear curve fitting (exponential growth equation) in GraphPad Prism v10.

22Rv1 cells [2] = experiment: Growth assay (SRB), 22Rv1
Outline: as §1

[3] = tested on: PolII and CDK2 phosphorylation in MCF7-CDK7-D97N cells; experiment: Immunoblotting of CDK7 targets, MCF7-CDK7-D97N; conditions: 24 h, immunoblot
Description: Whole-cell lysates were prepared in RIPA buffer (Sigma-Aldrich), supplemented with protease and phosphatase inhibitor cocktails (Roche). Protein sample concentrations were determined using the Pierce BCA Protein Assay kit (ThermoFisher Scientific). […] PolII CTD phosphorylation antibodies (P-Ser2 (ab5095) and P-Ser5 (ab5131), used at 1:10,000 dilution), as well as total PolII (ab817; 1:2000 dilution) and β-actin (ab6276; 1:100,000 dilution) were purchased from Abcam.

22Rv1-SamR cells = experiment: IncuCyte confluency growth, 22Rv1-SamR; conditions: for % Confluency: 80nM SY1365, 22Rv1-SamR
Description: as §2

22Rv1 cells [4] = experiment: IncuCyte confluency growth, 22Rv1
Description: as §2

CN(C)C/C=C/C(=O)Nc1ccc(C(=O)N[C@@]2(C)CCC[C@@H](Nc3ncc(Cl)c(-c4c[nH]c5ccccc45)n3)C2)nc1 [SY-1365]
IC50 (MCF7 cells; 4 days, SRB): 0.89 nM
% Growth (MCF7 cells; Log10 Conc. (nM) 3.70, 4 days): -12.18%
% Growth (MCF7 cells; Log10 Conc. (nM) -0.52, 4 days): 88.75% and 65.89% and 87.60% and 88.37%
% Growth (MCF7 cells; Log10 Conc. (nM) -1.12, 4 days): 97.02% and 94.10% and 95.64% and 94.95%
% Growth (MCF7 cells; Log10 Conc. (nM) -1.72, 4 days): 90.31% and 94.08% and 94.26%
% Confluency ([1]; 80nM SY1365, CDK7D97N CL3, 0 hours): 10.64% and 16.42% and 15.20%
% Confluency ([1]; 80nM SY1365, CDK7D97N CL3, 6 hours): 12.17% and 18.19% and 16.81%
% Confluency ([1]; 80nM SY1365, CDK7D97N CL3, 12 hours): 12.25% and 16.05% and 14.62%
% Confluency ([1]; 80nM SY1365, CDK7D97N CL3, 18 hours): 11.21% and 14.01% and 12.61%
% Confluency ([1]; 80nM SY1365, CDK7D97N CL3, 24 hours): 9.91% and 12.68% and 11.43%
% Confluency ([1]; 80nM SY1365, CDK7D97N CL3, 30 hours): 9.03% and 11.88% and 10.71%
% Confluency ([1]; 80nM SY1365, CDK7D97N CL3, 36 hours): 8.55% and 11.34% and 10.26%
% Confluency ([1]; 80nM SY1365, CDK7D97N CL3, 42 hours): 8.35% and 11.02% and 9.94%
% Confluency ([1]; 80nM SY1365, CDK7D97N CL3, 48 hours): 8.30% and 10.78% and 9.70%
% Confluency ([1]; 80nM SY1365, CDK7D97N CL3, 54 hours): 8.19% and 10.49% and 9.48%
% Confluency ([1]; 80nM SY1365, CDK7D97N CL3, 60 hours): 8.11% and 10.33% and 9.30%
% Confluency ([1]; 80nM SY1365, CDK7D97N CL3, 66 hours): 8.06% and 10.08% and 9.17%
% Confluency ([1]; 80nM SY1365, CDK7D97N CL3, 72 hours): 8.00% and 9.91% and 9.02%
% Confluency ([1]; 80nM SY1365, CDK7D97N CL3, 78 hours): 7.89% and 9.76% and 8.94%
% Confluency ([1]; 80nM SY1365, CDK7D97N CL3, 84 hours): 7.83% and 9.66% and 8.79%
% Confluency ([1]; 80nM SY1365, CDK7D97N CL3, 90 hours): 7.73% and 9.55% and 8.72%
% Confluency ([1]; 80nM SY1365, CDK7D97N CL3, 96 hours): 7.64% and 9.51% and 8.65%
% Confluency ([1]; 80nM SY1365, CDK7D97N CL3, 114 hours): 7.42% and 9.25% and 8.52%
% Confluency ([1]; 80nM SY1365, CDK7D97N CL3, 120 hours): 7.37% and 9.31% and 8.48%
% Confluency ([1]; 80nM SY1365, CDK7D97N CL3, 126 hours): 7.26% and 9.19% and 8.45%
% Confluency ([1]; 80nM SY1365, CDK7D97N CL3, 132 hours): 7.22% and 9.15% and 8.43%
% Confluency ([1]; 80nM SY1365, CDK7D97N CL3, 138 hours): 7.16% and 9.12% and 8.33%
% Confluency ([1]; 80nM SY1365, CDK7D97N CL3, 144 hours): 7.11% and 8.98% and 8.32%
Growth inhibition over time ([1]; 22Rv1 homozygous CDK7-D97N clone, IncuCyte confluency, samuraciclib at 1.35 µM): potently growth inhibited
% Growth (22Rv1 cells [2]; 22Rv1, Log10 Conc. (nM) 0.09): 53.71% and 72.88%
% Growth (22Rv1 cells [2]; 22Rv1, Log10 Conc. (nM) 0.69): 19.90% and 19.70%
% Growth (22Rv1 cells [2]; 22Rv1, Log10 Conc. (nM) 1.29): 16.91% and 19.74%
% Growth (22Rv1 cells [2]; 22Rv1, Log10 Conc. (nM) 1.89): -7.92% and -2.43%
% Growth (22Rv1 cells [2]; 22Rv1, Log10 Conc. (nM) 2.49): -5.73% and -3.13%
% Growth (22Rv1 cells [2]; 22Rv1, Log10 Conc. (nM) 3.10): 1.12%
% Growth (22Rv1 cells [2]; 22Rv1, Log10 Conc. (nM) 3.70): -11.26%
% Growth (22Rv1 cells [2]; 22Rv1, Log10 Conc. (nM) -0.52): 94.30% and 92.75%
% Growth (22Rv1 cells [2]; 22Rv1, Log10 Conc. (nM) -1.12): 97.77% and 104.48%
% Growth (22Rv1 cells [2]; 22Rv1, Log10 Conc. (nM) -1.72): 103.08%
% Growth (22Rv1 cells [2]; 22Rv1, Log10 Conc. (nM) 0.09, 4 days, biological reps): 64.96% and 59.63%
% Growth (22Rv1 cells [2]; 22Rv1, Log10 Conc. (nM) 0.69, 4 days, biological reps): 28.69% and 25.19%
% Growth (22Rv1 cells [2]; 22Rv1, Log10 Conc. (nM) 1.29, 4 days, biological reps): 21.21% and 16.89%
% Growth (22Rv1 cells [2]; 22Rv1, Log10 Conc. (nM) 1.89, 4 days, biological reps): 0.26% and -4.14%
% Growth (22Rv1 cells [2]; 22Rv1, Log10 Conc. (nM) 2.49, 4 days, biological reps): 1.87% and -4.53%
% Growth (22Rv1 cells [2]; 22Rv1, Log10 Conc. (nM) 3.10, 4 days, biological reps): -0.83% and -4.41%
% Growth (22Rv1 cells [2]; 22Rv1, Log10 Conc. (nM) 3.70, 4 days, biological reps): 0.68% and -4.68%
% Growth (22Rv1 cells [2]; 22Rv1, Log10 Conc. (nM) -0.52, 4 days, biological reps): 89.73% and 90.72%
% Growth (22Rv1 cells [2]; 22Rv1, Log10 Conc. (nM) -1.12, 4 days, biological reps): 93.97% and 90.45%
Inhibition of PolII and CDK2 phosphorylation [3]: maintained
% Confluency (22Rv1-SamR cells; 0 hours): 10.34% and 15.03% and 14.87%
% Confluency (22Rv1-SamR cells; 6 hours): 9.52% and 13.73% and 13.78%
% Confluency (22Rv1-SamR cells; 12 hours): 7.18% and 10.14% and 10.08%
% Confluency (22Rv1-SamR cells; 18 hours): 6.46% and 9.11% and 8.97%
% Confluency (22Rv1-SamR cells; 24 hours): 6.42% and 8.94% and 8.84%
% Confluency (22Rv1-SamR cells; 30 hours): 6.40% and 8.87% and 8.89%
% Confluency (22Rv1-SamR cells; 36 hours): 6.41% and 8.74% and 8.80%
% Confluency (22Rv1-SamR cells; 42 hours): 6.26% and 8.57% and 8.60%
% Confluency (22Rv1-SamR cells; 48 hours): 6.09% and 8.40% and 8.37%
% Confluency (22Rv1-SamR cells; 54 hours): 5.90% and 8.18% and 8.12%
% Confluency (22Rv1-SamR cells; 60 hours): 5.76% and 7.96% and 7.93%
% Confluency (22Rv1-SamR cells; 66 hours): 5.65% and 7.83% and 7.79%
% Confluency (22Rv1-SamR cells; 72 hours): 5.56% and 7.64% and 7.59%
% Confluency (22Rv1-SamR cells; 78 hours): 5.44% and 7.53%
% Confluency (22Rv1-SamR cells; 84 hours): 5.34% and 7.42% and 7.40%
% Confluency (22Rv1-SamR cells; 90 hours): 5.24% and 7.29% and 7.32%
% Confluency (22Rv1-SamR cells; 96 hours): 5.21% and 7.20% and 7.25%
% Confluency (22Rv1-SamR cells; 114 hours): 5.05% and 7.01% and 7.04%
% Confluency (22Rv1-SamR cells; 120 hours): 5.01% and 6.93% and 6.98%
% Confluency (22Rv1-SamR cells; 126 hours): 4.98% and 6.86% and 6.94%
% Confluency (22Rv1-SamR cells; 132 hours): 4.95% and 6.82% and 6.86%
% Confluency (22Rv1-SamR cells; 138 hours): 4.94% and 6.80% and 6.88%
% Confluency (22Rv1-SamR cells; 144 hours): 4.87% and 6.78% and 6.83%
Growth inhibition over time (22Rv1-SamR cells; 22Rv1-SamR, IncuCyte confluency, samuraciclib at 1.35 µM): potently growth inhibited
% Confluency (22Rv1 cells [4]; 80nM SY1365, 22Rv1, 0 hours): 11.42% and 19.49% and 18.80%
% Confluency (22Rv1 cells [4]; 80nM SY1365, 22Rv1, 6 hours): 11.80% and 20.40% and 19.49%
% Confluency (22Rv1 cells [4]; 80nM SY1365, 22Rv1, 12 hours): 10.21% and 17.43% and 16.82%
% Confluency (22Rv1 cells [4]; 80nM SY1365, 22Rv1, 18 hours): 9.13% and 15.66% and 15.15%
% Confluency (22Rv1 cells [4]; 80nM SY1365, 22Rv1, 24 hours): 8.54% and 14.77% and 14.37%
% Confluency (22Rv1 cells [4]; 80nM SY1365, 22Rv1, 30 hours): 8.21% and 14.28% and 13.85%
% Confluency (22Rv1 cells [4]; 80nM SY1365, 22Rv1, 36 hours): 8.00% and 13.79% and 13.42%
% Confluency (22Rv1 cells [4]; 80nM SY1365, 22Rv1, 42 hours): 7.74% and 13.41% and 13.03%
% Confluency (22Rv1 cells [4]; 80nM SY1365, 22Rv1, 48 hours): 7.60% and 13.19% and 12.71%
% Confluency (22Rv1 cells [4]; 80nM SY1365, 22Rv1, 54 hours): 7.42% and 12.81% and 12.32%
% Confluency (22Rv1 cells [4]; 80nM SY1365, 22Rv1, 60 hours): 7.30% and 12.50% and 12.14%
% Confluency (22Rv1 cells [4]; 80nM SY1365, 22Rv1, 66 hours): 7.19% and 12.29% and 11.85%
% Confluency (22Rv1 cells [4]; 80nM SY1365, 22Rv1, 72 hours): 7.07% and 12.06% and 11.63%
% Confluency (22Rv1 cells [4]; 80nM SY1365, 22Rv1, 78 hours): 6.98% and 11.84% and 11.40%
% Confluency (22Rv1 cells [4]; 80nM SY1365, 22Rv1, 84 hours): 6.88% and 11.65% and 11.26%
% Confluency (22Rv1 cells [4]; 80nM SY1365, 22Rv1, 90 hours): 6.85% and 11.59% and 11.21%
% Confluency (22Rv1 cells [4]; 80nM SY1365, 22Rv1, 96 hours): 6.73% and 11.35% and 10.98%
% Confluency (22Rv1 cells [4]; 80nM SY1365, 22Rv1, 114 hours): 6.60% and 11.05% and 10.79%
% Confluency (22Rv1 cells [4]; 80nM SY1365, 22Rv1, 120 hours): 6.58% and 10.92% and 10.70%
% Confluency (22Rv1 cells [4]; 80nM SY1365, 22Rv1, 126 hours): 6.55% and 10.80% and 10.69%
% Confluency (22Rv1 cells [4]; 80nM SY1365, 22Rv1, 132 hours): 6.55% and 10.73% and 10.58%
% Confluency (22Rv1 cells [4]; 80nM SY1365, 22Rv1, 138 hours): 6.46% and 10.70% and 10.57%
% Confluency (22Rv1 cells [4]; 80nM SY1365, 22Rv1, 144 hours): 6.45% and 10.59% and 10.48%
Growth inhibition over time (22Rv1 cells [4]; 22Rv1, IncuCyte confluency): potently growth inhibited
